This assay concerns IRF3. Put plainly: IRF3 activation assay in THP-1 Dual Cells. In kind it is cell-based. Conditions: Homo sapiens, THP1-Dual, 24 hours incubation, QUANTI-Blue readout. The procedure:
THP-1 Dual Cells (Invivogen) were maintained in RPMI1640 medium with addition of 10% FBS, 100 μg/mL zeocin, 10 μg/mL blasticidin. Cells were added in a 96-well flat bottom assay plate at 100,000 per well in 100 μL complete RPMI medium. Test compounds were prepared by serial dilution in complete RPMI medium and 100 μL test compounds were transferred to each corresponding well. The assay plate was incubated at 37° C., 5% CO2 for 24 hours. After the overnight incubation, 20 μL of the culture supernatants were collected, followed by addition of 180 μL of QUANTI-Blue (Invivogen) to assess IRF3 activity. The amount of IRF3 activation was assessed by reading the absorbance at 620-655 nm with a microplate reader 2 hours later. The culture supernatant from the untreated THP-1 cells was used as the negative control. To determine the NF-κB activation, another 20 μL of culture supernatant were transferred to a 96-well white plate, followed by addition of 50 μL of Quanti-Luc™ assay solution (Invivogen). The amount of NF-κB activation induced by the test compounds were determined by the luminescence above the untreated control. EC50 determination was performed by fitting the curve of percent control activity versus the log of the compound concentration using the GraphPad Prism 6.0 software.

On to `CCn1nc(C)cc1C(=O)Nc1nc2cc(C(N)=O)c3ccoc3c2n1C/C=C/Cn1c2nc(-c3cc(C)nn3CC)ncc2c2cc(C(N)=O)cc(OCCCOC)c21` [Example 2, (E)-1-(4-(6-carbamoyl-2-(1-ethyl-3-methyl-1H-pyrazol-5-yl)-8-(3-methoxypropoxy)-9H-pyrimido[4,5-b]indol-9-yl)but-2-en-1-yl)-2-(1-ethyl-3-methyl-1H-pyrazole-5-carboxamido)-1H-benzofuro[6,7-d]imidazole-5-carboxamide], for which the EC50 (commonly the midpoint of the concentration-response curve) is less than 100 nM.

`CCn1nc(C)cc1C(=O)Nc1nc2cc(C(N)=O)c3ccoc3c2n1C/C=C/Cn1c2nc(-c3cc(C)nn3CC)ncc2c2cc(C(N)=O)cc(OC)c21` [Example 1, (E)-1-(4-(6-carbamoyl-2-(1-ethyl-3-methyl-1H-pyrazol-5-yl)-8-methoxy-9H-pyrimido[4,5-b]indol-9-yl)but-2-en-1-yl)-2-(1-ethyl-3-methyl-1H-pyrazole-5-carboxamido)-1H-benzofuro[6,7-d]imidazole-5-carboxamide]: the EC50 is less than 100 nM. The compound `CCn1nc(C)cc1C(=O)Nc1nc2cc(C(N)=O)c3ccoc3c2n1C/C=C/Cn1c2nc(-c3cc(C)nn3CC)ncc2c2cc(C(N)=O)cc(OCCCO)c21` [Example 3, (E)-1-(4-(6-carbamoyl-2-(1-ethyl-3-methyl-1H-pyrazol-5-yl)-8-(3-hydroxypropoxy)-9H-pyrimido[4,5-b]indol-9-yl)but-2-en-1-yl)-2-(1-ethyl-3-methyl-1H-pyrazole-5-carboxamido)-1H-benzofuro[6,7-d]imidazole-5-carboxamide] came in with an EC50 of less than 100 nM.

The values are drawn from patent US12129267B2, “Heteroaryl amide compounds as sting activators” (Incyte Corporation, priority 2019, dated 2024).
